The test system of assay [1] is MCF7 (breast cancer cell line). The experiment in a line: MTT cytotoxicity assay, MCF7. It counts as cell-based, human. To be noted: for IC50: Homo sapiens. An excerpt:
(§1) Human estrogen-receptor positive (ER+) breast adenocarcinoma cell lines, MCF7 and T47D, were maintained in Roswell Park Memorial Institute-1640 medium (Sigma Aldrich, Missouri, USA) and the human epidermal growth factor receptor 2 positive (HER2+) BT474, and triple negative (TNBC) MDA-MB-231 and MDA-MB-468 cells were maintained in Dulbecco's Modified Eagle's Medium (DMEM) (Sigma Aldrich, Missouri, USA). FG0 human skin fibroblasts (provided by Associate Professor Denver Hendricks, University of Cape Town) were maintained in DMEM while the normal breast epithelial cell line MCF12A was maintained in DMEM:nutrient mixture F-12 (DMEM/F12; 1:1; Sigma Aldrich, Missouri, USA), supplemented with 20 ng/ml epidermal growth factor, 100 ng/ml cholera toxin, 500 ng/ml hydrocortisone and 10 µg/ml insulin. All media were supplemented with 10 % fetal bovine serum, 100 U/ml penicillin and 100 µg/ml streptomycin. Cells were maintained at 37 °C in a 5 % CO2 and 95 % air-humidified incubator. Media was replaced every 2-3 days and cells were routinely tested for mycoplasma infection.
(§2) Cells (3.5×10^3-6×10^3 / well) were seeded in 96-well plates and treated at a 60-70 % confluence with a range of concentrations (0-10 μM) of test compounds or vehicle for 48 h. Cell viability was measured using the 3-(4,5-dimethylthiazol-2-yl)-2,5-diphenyl-trazolium bromide (MTT) assay (11465007001; Sigma Aldrich) according to the manufacturer's instructions. Mean cell viability was calculated as a percentage of the mean vehicle control. A minimum of three independent experiments in quadruplicate were performed from which the IC50 was determined from sigmoidal plots using GraphPad Prism version 6.0 (GraphPad Software, California, USA). The selectivity index (SI) was determined by dividing the IC50 of a non-malignant cell line by the IC50 of a cancer cell line.
Briefly, the cells were treated with a range of concentrations (2 - 20 µM) of each compound or vehicle (DMSO) for 48 h and MTT assays were performed. […] Based on the promising IC50 and SI values obtained for MMV652103, it was chosen for further studies.
(Formazan colour is commonly taken as a measure of viable cells.)

Assay [2] concerns T47D (ER+) breast cancer cells. The experiment in a line: MTT cytotoxicity assay, T47D. To be noted: for IC50: Homo sapiens, T47D. It is filed as cell-based, human.
From the text: as §1, §2

Assay [3] has as its system BT474 (HER2+) breast cancer cells. The experiment in a line: MTT cytotoxicity assay, BT474. It is filed as cell-based. To be noted: Homo sapiens, BT-474. As for the experimental part: (§3) Human estrogen-receptor positive (ER+) breast adenocarcinoma cell lines, MCF7 and T47D, were maintained in Roswell Park Memorial Institute-1640 medium (Sigma Aldrich, Missouri, USA) and the human epidermal growth factor receptor 2 positive (HER2+) BT474, and triple negative (TNBC) MDA-MB-231 and MDA-MB-468 cells were maintained in Dulbecco's Modified Eagle's Medium (DMEM) (Sigma Aldrich, Missouri, USA). […]
as §2

Assay [4] has as its system FG0 human skin fibroblasts. The experiment in a line: MTT cytotoxicity assay, FG0. It is filed as cell-based. As to conditions: Skin fibroblast. The protocol:
as §3, §2

In assay [5] the target is T1, PIK3C2G (Homo sapiens, UniProt O75747).
T1 construct: purchased Carna Biosciences Inc; Invitrogen Corporation
T1 sequence (O75747 whole entry): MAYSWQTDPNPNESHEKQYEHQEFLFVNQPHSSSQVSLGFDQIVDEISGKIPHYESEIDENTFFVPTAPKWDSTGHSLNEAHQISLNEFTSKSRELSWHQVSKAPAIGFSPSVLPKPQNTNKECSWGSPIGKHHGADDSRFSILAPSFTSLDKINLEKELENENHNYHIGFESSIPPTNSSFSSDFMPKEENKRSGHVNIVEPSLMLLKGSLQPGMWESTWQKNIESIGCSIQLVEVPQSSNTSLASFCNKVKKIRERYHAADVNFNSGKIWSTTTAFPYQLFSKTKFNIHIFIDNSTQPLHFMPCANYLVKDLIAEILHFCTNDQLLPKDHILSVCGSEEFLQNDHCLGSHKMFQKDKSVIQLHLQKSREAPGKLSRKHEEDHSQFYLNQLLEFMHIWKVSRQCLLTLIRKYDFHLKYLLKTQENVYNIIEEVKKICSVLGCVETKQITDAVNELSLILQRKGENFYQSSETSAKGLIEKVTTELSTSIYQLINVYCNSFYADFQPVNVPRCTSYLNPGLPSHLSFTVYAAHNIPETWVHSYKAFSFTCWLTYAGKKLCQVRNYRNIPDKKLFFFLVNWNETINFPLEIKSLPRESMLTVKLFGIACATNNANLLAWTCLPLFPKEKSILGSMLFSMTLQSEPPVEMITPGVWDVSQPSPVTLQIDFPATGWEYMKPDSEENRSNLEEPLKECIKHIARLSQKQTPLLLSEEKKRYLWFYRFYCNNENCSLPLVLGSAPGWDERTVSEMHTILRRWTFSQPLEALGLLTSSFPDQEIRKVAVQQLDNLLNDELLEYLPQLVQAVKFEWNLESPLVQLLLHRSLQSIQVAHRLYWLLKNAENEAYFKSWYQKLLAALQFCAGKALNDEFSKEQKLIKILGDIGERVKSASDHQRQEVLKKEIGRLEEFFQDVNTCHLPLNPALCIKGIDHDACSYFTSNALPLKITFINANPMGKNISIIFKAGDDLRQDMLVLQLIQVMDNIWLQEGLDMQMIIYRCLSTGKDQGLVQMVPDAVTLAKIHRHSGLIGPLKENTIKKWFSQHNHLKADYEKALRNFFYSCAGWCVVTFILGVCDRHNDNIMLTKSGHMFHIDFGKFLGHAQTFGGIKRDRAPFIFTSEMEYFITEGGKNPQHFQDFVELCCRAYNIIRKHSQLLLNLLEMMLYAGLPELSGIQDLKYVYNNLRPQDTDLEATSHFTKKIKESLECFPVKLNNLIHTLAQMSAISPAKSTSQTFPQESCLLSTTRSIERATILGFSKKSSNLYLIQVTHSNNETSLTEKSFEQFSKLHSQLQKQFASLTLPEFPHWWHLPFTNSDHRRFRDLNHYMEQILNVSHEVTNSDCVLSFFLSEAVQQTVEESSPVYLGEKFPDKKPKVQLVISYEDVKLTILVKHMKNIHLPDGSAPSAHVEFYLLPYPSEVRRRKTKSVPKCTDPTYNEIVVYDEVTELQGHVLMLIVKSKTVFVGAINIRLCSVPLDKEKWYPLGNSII
Nature of the assay: ADP-Glo lipid kinase assay, PIK3C2G. It counts as biochemical. As for the experimental part: A non-radiometric kinase assay (ADP-Glo™ Assay, Promega, Madison, Wi, USA) was used for measuring the kinase activity of the 2 lipid kinases, phosphatidylinositol 4-kinase beta (encoded by the PI4KB gene) and phosphatidylinositol-4-Phosphate 3-Kinase Catalytic Subunit Type 2 Gamma (encoded by the PIK3C2G gene). All kinase assays were performed in 96-well half-area microtiter plates from Greiner Bio-One (Frickenhausen, Germany) in 25 µl reaction volumes. […] In addition, the assay for PI4KB contained 3 mM MnCl2 and the assay for PIK3C2G contained 3 mM MgCl2. Kinases from external vendors (Carna Biosciences Inc.; Invitrogen Corporation; Millipore Corporation) were expressed, purified and quality-controlled by virtue of the vendors readings. The reaction cocktails were incubated at 30 °C for 60 min. The reaction was stopped with 25 µl ADP-Glo reagent per well. Plates were incubated for 40 min at RT, followed by the addition of 50 µl kinase detection reagent per well and incubation for 60 min at RT. Signal was determined with a microplate luminescence reader (Victor, Perkin Elmer). […]
For each kinase, the median value of the counts per second (cps) of three wells with complete reaction cocktails, but without kinase, was defined as "low control" (n=3). […] The residual activity (in %) for each well of each row of a particular plate was calculated by using the following formula: […]

For assay [6], the target named is T2, PIK3C2A (Homo sapiens, UniProt O00443).
T2 construct: purchased Carna Biosciences Inc; Invitrogen Corporation
Nature of the assay: ADP-Glo lipid kinase assay, PIK3C2A. It counts as biochemical. To be noted: 10 µM compound. (ADP-Glo turns the ADP formed in a reaction into a luminescent signal.)

For assay [7], the target named is T3, PIK3CA/ PIK3R1 (Homo sapiens, UniProt P42336).
T3 construct: purchased Carna Biosciences Inc; Invitrogen Corporation
T3 sequence (P42336 whole entry): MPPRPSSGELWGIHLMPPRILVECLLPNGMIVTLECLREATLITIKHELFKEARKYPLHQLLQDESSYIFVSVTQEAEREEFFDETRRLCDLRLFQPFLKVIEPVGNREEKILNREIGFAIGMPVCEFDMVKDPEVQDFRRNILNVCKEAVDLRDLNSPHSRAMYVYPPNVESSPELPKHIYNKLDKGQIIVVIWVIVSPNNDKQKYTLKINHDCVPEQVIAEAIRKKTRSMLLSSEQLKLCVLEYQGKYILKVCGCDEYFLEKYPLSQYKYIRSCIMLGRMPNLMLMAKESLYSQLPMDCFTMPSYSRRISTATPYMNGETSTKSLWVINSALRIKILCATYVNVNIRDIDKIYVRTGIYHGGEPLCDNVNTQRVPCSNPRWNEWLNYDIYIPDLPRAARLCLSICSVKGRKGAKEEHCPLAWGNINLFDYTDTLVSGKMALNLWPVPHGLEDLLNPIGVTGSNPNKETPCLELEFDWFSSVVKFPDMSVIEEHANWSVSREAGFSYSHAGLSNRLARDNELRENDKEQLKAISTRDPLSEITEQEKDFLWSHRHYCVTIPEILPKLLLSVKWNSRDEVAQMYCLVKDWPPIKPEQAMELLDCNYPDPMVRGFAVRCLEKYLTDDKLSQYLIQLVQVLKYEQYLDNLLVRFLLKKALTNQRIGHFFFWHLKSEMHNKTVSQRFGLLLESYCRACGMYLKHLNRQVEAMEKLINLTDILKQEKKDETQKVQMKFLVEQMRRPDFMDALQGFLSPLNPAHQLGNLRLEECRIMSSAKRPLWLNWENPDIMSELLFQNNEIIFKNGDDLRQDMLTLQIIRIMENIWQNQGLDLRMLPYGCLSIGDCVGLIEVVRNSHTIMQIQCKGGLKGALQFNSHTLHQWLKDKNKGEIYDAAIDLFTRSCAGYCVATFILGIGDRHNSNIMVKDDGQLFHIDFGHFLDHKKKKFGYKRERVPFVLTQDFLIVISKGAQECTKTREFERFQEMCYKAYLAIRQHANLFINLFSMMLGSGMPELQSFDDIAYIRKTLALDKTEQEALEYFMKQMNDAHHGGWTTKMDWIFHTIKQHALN
T3 sequence (P27986 whole entry partner): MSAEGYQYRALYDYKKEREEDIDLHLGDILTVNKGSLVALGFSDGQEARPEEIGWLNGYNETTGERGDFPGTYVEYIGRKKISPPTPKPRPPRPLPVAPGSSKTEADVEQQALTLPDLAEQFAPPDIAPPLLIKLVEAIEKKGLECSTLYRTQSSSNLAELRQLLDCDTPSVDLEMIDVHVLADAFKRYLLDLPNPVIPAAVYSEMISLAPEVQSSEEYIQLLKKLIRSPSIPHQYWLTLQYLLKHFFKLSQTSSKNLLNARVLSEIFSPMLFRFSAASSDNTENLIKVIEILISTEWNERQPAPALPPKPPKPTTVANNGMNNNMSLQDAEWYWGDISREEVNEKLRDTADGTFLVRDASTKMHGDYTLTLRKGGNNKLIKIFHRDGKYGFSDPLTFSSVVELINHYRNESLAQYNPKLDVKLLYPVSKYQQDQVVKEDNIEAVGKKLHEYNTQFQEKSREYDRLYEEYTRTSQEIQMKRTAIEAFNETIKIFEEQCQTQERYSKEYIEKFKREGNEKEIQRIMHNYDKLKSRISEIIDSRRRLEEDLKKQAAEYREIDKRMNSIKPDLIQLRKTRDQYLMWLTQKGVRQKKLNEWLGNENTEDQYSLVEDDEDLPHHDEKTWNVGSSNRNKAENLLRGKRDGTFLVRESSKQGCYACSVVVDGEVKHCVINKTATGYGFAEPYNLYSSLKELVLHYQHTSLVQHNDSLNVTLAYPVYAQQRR
Nature of the assay: ADP-Glo lipid kinase assay, PIK3CA/PIK3R1. To be noted: 10 µM compound. It counts as biochemical.

Assay [8] has as its target T4, PIK3CB/ PIK3R1 (Homo sapiens, UniProt P42338).
T4 construct: purchased Carna Biosciences Inc; Invitrogen Corporation
The experiment in a line: ADP-Glo lipid kinase assay, PIK3CB/PIK3R1. As to conditions: 10 µM compound. It is filed as biochemical.

In assay [9] the target is T5, PIK3CG (Homo sapiens, UniProt P48736).
T5 construct: purchased Carna Biosciences Inc; Invitrogen Corporation
The experiment in a line: ADP-Glo lipid kinase assay, PIK3CG. It counts as biochemical. To be noted: 10 µM compound.

The target in assay [10] is T6, PI4K2B (Homo sapiens, UniProt Q8TCG2).
T6 construct: purchased Carna Biosciences Inc; Invitrogen Corporation
T6 sequence (Q8TCG2 whole entry): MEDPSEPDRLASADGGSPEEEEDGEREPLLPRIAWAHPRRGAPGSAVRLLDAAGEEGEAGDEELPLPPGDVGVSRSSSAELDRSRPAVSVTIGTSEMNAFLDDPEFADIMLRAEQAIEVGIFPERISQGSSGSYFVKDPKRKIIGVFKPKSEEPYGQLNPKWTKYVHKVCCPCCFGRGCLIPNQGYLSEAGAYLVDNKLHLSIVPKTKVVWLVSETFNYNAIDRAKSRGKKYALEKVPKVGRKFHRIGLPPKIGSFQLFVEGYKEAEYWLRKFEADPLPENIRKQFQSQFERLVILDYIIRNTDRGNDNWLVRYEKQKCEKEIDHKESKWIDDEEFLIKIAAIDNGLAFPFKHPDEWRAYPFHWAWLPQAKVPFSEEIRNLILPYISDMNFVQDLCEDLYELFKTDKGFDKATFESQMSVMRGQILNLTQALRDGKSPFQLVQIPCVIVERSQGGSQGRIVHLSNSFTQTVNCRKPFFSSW
Nature of the assay: ADP-Glo lipid kinase assay, PI4K2B. It counts as biochemical. To be noted: 10 µM compound.

The structures appear in SMILES notation. Like-named read-outs stand apart in the source and are kept apart here.

T4 sequence (P42338 whole entry): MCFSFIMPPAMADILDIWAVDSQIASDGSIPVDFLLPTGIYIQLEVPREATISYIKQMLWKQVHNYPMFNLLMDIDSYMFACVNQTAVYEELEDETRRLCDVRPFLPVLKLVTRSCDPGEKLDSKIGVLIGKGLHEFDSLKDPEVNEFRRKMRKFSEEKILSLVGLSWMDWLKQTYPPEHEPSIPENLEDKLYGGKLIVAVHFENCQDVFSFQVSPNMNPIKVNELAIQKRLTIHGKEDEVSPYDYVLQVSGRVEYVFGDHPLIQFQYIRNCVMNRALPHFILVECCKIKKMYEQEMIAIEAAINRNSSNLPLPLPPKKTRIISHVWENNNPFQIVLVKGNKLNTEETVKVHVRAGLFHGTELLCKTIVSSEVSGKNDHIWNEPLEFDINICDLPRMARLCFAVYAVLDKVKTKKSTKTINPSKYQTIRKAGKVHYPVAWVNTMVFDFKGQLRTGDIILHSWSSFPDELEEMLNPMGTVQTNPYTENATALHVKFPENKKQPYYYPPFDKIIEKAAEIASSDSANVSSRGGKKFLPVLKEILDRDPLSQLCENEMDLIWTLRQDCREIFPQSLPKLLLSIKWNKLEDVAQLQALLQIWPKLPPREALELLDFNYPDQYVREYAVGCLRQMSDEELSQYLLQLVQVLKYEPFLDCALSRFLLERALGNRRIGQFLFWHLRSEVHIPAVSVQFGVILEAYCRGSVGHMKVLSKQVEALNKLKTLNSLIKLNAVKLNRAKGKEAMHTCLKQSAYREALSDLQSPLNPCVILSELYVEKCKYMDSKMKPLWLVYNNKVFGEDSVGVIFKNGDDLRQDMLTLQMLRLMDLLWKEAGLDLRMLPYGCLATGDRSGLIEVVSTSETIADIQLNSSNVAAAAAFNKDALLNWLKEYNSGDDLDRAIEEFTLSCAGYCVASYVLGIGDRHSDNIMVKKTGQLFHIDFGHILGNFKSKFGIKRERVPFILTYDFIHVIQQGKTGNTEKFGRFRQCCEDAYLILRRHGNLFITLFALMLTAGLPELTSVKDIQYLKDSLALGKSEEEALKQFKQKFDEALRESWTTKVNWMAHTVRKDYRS
T4 sequence (P27986 whole entry partner): as the sequence (P27986 whole entry partner) above

Usually IC50 stands for the concentration at which inhibition is half-maximal. As a reminder, the remaining activity is the share of the control activity or signal that is left under treatment. The low end stands for little activity left, the high end for much activity left. For `CS(=O)(=O)c1ccc(-c2cnc3ccc(-c4cccc(S(C)(=O)=O)c4)nn23)cc1` [MMV652103], the IC50 was 2.2 ± 1.15 µM in [1] (MCF7, Fig 2C summary, MTT 48 h, read-out: IC50 ± SEM MCF7); 2.2 µM in assay [1] (MCF7, MTT, 48 h, read-out: Cytotoxicity assays (MTT) IC50 MCF7); 2.5 µM in assay [1] (average of MCF7 and T47D, read-out: average IC50 in the ER+ cell lines MCF7 and T47D); 2.9 ± 1.1 µM in assay [2] (Fig 2C summary, MTT 48 h, read-out: IC50 ± SEM T47D); 2.9 µM in assay [2] (MTT, 48 h, read-out: IC50 T47D); 7.3 ± 1.05 µM in assay [3] (Fig 2C summary, MTT 48 h, read-out: IC50 ± SEM BT474). Further, the IC50 in assay [3] (MTT, 48 h, read-out: IC50 BT474) is 7.3 µM; in assay [4] (Fig 2C summary, MTT 48 h, read-out: IC50 ± SEM FG0), above 10 µM; in assay [4] (MTT, 48 h, exact IC50 not reached, predicted, read-out: IC50 FG0), above 10 µM; in assay [5] (ADP-Glo), 0.085 µM. Moreover, the “SI IC50 MCF12A / IC50 MCF7” value in assay [1] (selectivity index, MCF12A vs MCF7) came out at 3.02. Further, in assay [2] (IC50 FG0 / IC50 T47D), the “SI FG0 (T47D)” value is given as above 2. Moreover, the remaining activity at 10 µM was found to be 4% in assay [5] (10 µM compound); 39% in assay [6]; 3% in assay [7]; 19% in [8]; 2% in assay [9]; 50% in [10].

These data come from publication PMC9149975, “The diaryl-imidazopyridazine anti-plasmodial compound, MMV652103, exhibits anti-breast cancer activity” (EXCLI Journal, 2022).
